This passage reports IC50 results from patent publication US20260356851A1, “TRICYCLIC COMPOUNDS AND USES THEREOF” (HUTCHMED LIMITED, priority 2023, published 2026).

Where two headings read alike, the source gives them in different places. Where only a bound is given, the exact number is not on record here.

Common to all, as to assay type: cell-based
For test [1], the target named is T1, pERK1/2 (Thr202/Tyr204), NCI-1H358 (KRAS G12C) (Homo sapiens, UniProt P01116, G12C).
T1 construct: pERK1/2 HTRF read-out
T1 sequence (P01116 1-188 isoform P01116-2 G12C): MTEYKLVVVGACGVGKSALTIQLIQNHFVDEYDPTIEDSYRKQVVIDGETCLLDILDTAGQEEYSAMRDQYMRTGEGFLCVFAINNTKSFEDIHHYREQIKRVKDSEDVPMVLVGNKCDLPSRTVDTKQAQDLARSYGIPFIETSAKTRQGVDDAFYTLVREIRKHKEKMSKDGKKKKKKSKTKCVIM
In words: Assay of intracellular pERK1/2 (Thr202/Tyr204) phosphorylation in NCI-H358 cells (KRAS G12C). The essentials:
(§1)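 HTRF detection of Thr202/Tyr204-phosphorylated ERK1/2 (665/615 nm ratio) in lysates from cells treated 2 days with serially 3-fold diluted compound.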

Test [2] has as its target T2, pERK1/2 (Thr202/Tyr204), PANC-1 (KRAS G121D) (Homo sapiens, UniProt P01116, G12D).
T2 construct: pERK1/2 HTRF read-out
Nature of the test: Assay of intracellular pERK1/2 (Thr202/Tyr204) phosphorylation in PANC-1 cells (KRAS G12D). The essentials: as §1

For test [3], the target named is T3, pERK1/2 (Thr202/Tyr204), NCI-1H441 (KRAS G12V) (Homo sapiens, UniProt P01116, G12V).
T3 construct: pERK1/2 HTRF read-out
T3 sequence (P01116 1-188 isoform P01116-2 G12V): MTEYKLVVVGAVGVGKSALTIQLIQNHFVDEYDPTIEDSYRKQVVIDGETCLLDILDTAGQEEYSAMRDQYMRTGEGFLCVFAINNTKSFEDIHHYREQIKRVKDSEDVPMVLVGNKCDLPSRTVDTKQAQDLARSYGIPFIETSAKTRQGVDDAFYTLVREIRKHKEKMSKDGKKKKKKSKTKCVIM
Nature of the test: Assay of intracellular pERK1/2 (Thr202/Tyr204) phosphorylation in NCI-H441 cells (KRAS G12V). The method, boiled down:
as §1

Where [4] appears, read: pERK1/2, 2 days, read-out: NCI-H358 (KRAS G12C) IC50.
[5] abbreviates: pERK1/2, 2 days, read-out: PANC-1 (KRAS G12D) IC50.
The mark [6] stands for this setting: pERK1/2, 2 days, read-out: NCI-H441 (KRAS G12V) IC50.
Setting [7] is: read-out: NCI-H358 (KRAS G12C) IC50, pERK1/2, 2 days.
[8] abbreviates: read-out: PANC-1 (KRAS G12D) IC50, pERK1/2, 2 days.
Setting [9] is: read-out: NCI-H441 (KRAS G12V) IC50, pERK1/2, 2 days.

T2 sequence (P01116 1-188 isoform P01116-2 G12D): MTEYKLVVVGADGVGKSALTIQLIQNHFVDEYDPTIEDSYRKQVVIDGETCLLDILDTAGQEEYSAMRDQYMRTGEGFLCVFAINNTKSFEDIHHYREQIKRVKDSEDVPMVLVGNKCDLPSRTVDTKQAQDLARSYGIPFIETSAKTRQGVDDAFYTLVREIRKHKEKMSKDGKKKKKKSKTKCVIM

Turning to `CC(c1cccnc1N)N1CCOc2nc(-c3cc(N)c(F)c(Cl)c3C(F)(F)F)c(F)c3nc(OC[C@@H]4C[C@@H](F)CN4C)nc1c23` (stereo partly drawn) [Compound 205], the figures for the IC50 in test [1] (setting [4]), in test [2] (setting [5]) and in test [3] (setting [6]) were 0.3 nM, 11 nM and 1 nM, respectively.
On the same counts, the results for `Cc1c(F)c(N)cc(-c2nc3c4c(nc(OCC56CCCN5CC5(CC5)C6)nc4c2F)N(C(C)c2cccnc2N)CCO3)c1C(F)(F)F` (stereo not drawn) [Compound 218] are 0.5 nM, 4 nM and 1 nM.
On to `[2H]C1([2H])CC[C@@]2(COc3nc4c5c(nc(-c6cc(N)c(F)c(Cl)c6C(F)(F)F)c(F)c5n3)OCCN4C(C)c3cccnc3N)C[C@@H](F)CN12` (stereo partly drawn) [Compound 221], for which the IC50 was 0.1 nM in test [1] (setting [4]), 2 nM in test [2] (setting [5]) and 0.4 nM in test [3] (setting [6]).
Turning to `[2H]C1([2H])CC[C@@]2(COc3nc4c5c(nc(-c6cc(N)c(F)c(Cl)c6C(F)(F)F)c(F)c5n3)OC([2H])([2H])C([2H])([2H])N4C(C)c3ccc[n+]([O-])c3N)C[C@@H](F)CN12` (stereo partly drawn) [Compound 224], the IC50 in test [1] (setting [4]), in test [2] (setting [5]) and in test [3] (setting [6]) was more than 100 nM throughout.
`Cc1cc(N)cc(-c2nc3c4c(nc(OC[C@@]56CCCN5C/C(=C\F)C6)nc4c2F)N(C(C)c2cccnc2N)CCO3)c1C(F)(F)F` (stereo partly drawn) [Compound 225]: the IC50 was 0.2 nM in test [1] (setting [4]), 0.5 nM in test [2] (setting [5]) and 0.5 nM in test [3] (setting [6]).
As for `Cc1c(F)c(N)cc(-c2nc3c4c(nc(OC[C@@]56CCCN5C[C@H](F)C6)nc4c2F)N(C(C)c2ccc[n+]([O-])c2N)CCO3)c1C(F)(F)F` (stereo partly drawn) [Compound 226], the values for the IC50 in test [1] (setting [4]), in test [2] (setting [5]) and in test [3] (setting [6]) were 43 nM, more than 100 nM and more than 100 nM, respectively.
Take `CC(c1cccnc1N)N1CCOc2nc(-c3cc(N)c(F)c(Cl)c3C(F)(F)F)c(F)c3nc(OC[C@@]45CCCN4C/C(=C\F)C5)nc1c23` (stereo partly drawn) [Compound 229]: the IC50 in test [1] (setting [4]) is 0.1 nM; in test [2] (setting [5]) it was 0.5 nM; in test [3] (setting [6]), 0.5 nM.
Consider `Cc1c(F)c(N)cc(-c2nc3c4c(nc(OC[C@@]56CCCN5C/C(=C\F)C6)nc4c2F)N(C(C)c2cccnc2N)CCO3)c1C(F)(F)F` (stereo partly drawn) [Compound 230], for which the figures for the IC50 in test [1] (setting [4]), in test [2] (setting [5]) and in test [3] (setting [6]) were 0.1 nM, 1 nM and 0.5 nM, respectively.
On the same counts, the results for `[2H]C1([2H])CC[C@@]2(COc3nc4c5c(nc(-c6cc(N)cc(C)c6C(F)(F)F)c(F)c5n3)OCCN4C(C)c3cccnc3N)C[C@@H](F)CN12` (stereo partly drawn) [Compound 231] are 0.2 nM, 0.8 nM and 0.2 nM.
Take `CC(c1cccnc1N)N1CCOc2nc(-c3cc(N)c(F)c(Cl)c3C3CC3)c(F)c3nc(OC[C@@]45CCCN4C[C@H](F)C5)nc1c23` (stereo partly drawn) [Compound 232]: the IC50 in test [1] (setting [4]) turned out to be 0.2 nM; in test [2] (setting [5]), 5 nM; in test [3] (setting [6]) it was 0.9 nM.
Take `CC(c1cccnc1N)N1CCOc2nc(-c3cc(N)c(F)c(Cl)c3Cl)c(F)c3nc(OC[C@@]45CCCN4C[C@H](F)C5)nc1c23` (stereo partly drawn) [Compound 233]: the figures for the IC50 in test [1] (setting [4]), in test [2] (setting [5]) and in test [3] (setting [6]) were 1 nM, 32 nM and 3 nM, respectively.
As to `Cc1cc(N)cc(-c2nc3c4c(nc(OC[C@@]56CCCN5CC5(CC5(F)F)C6)nc4c2F)N(C(C)c2cccnc2N)CCO3)c1C(F)(F)F` (stereo partly drawn) [Compound 237], the IC50 in test [1] (setting [4]) was determined as 0.3 nM; in test [2] (setting [5]), 1 nM; in test [3] (setting [6]), 0.4 nM.
In the case of `Cc1c(F)c(N)cc(-c2nc3c4c(nc(OC[C@@]56CCCN5CC(=C(F)F)C6)nc4c2F)N(C(C)c2cccnc2N)CCO3)c1C(F)(F)F` (stereo partly drawn) [Compound 243], the IC50 in test [1] (setting [4]) is 0.2 nM; in test [2] (setting [5]), 1 nM; in test [3] (setting [6]) it was 0.5 nM.
Turning to `C#Cc1c(F)ccc2cc(O)cc(-c3nc4c5c(nc(OC[C@@]67CCCN6C[C@H](F)C7)nc5c3F)N(C(C)c3cccnc3N)CCO4)c12` (stereo partly drawn) [Compound 259], the figures for the IC50 in test [1] (setting [4]), in test [2] (setting [5]) and in test [3] (setting [6]) were 0.9 nM, 1 nM and 1 nM, respectively.
Consider `Cc1cc(N)cc(-c2nc3c4c(nc(OC[C@@]56CCCN5C[C@H](F)C6)nc4c2F)N(C(C)c2cccnc2N)[C@@H](C)CO3)c1C(F)(F)F` (stereo partly drawn) [Compound 262], for which the figures for the IC50 in test [1] (setting [4]), in test [2] (setting [5]) and in test [3] (setting [6]) were 28 nM, 40 nM and 47 nM, respectively.
For `CC(=O)Nc1ncccc1C(C)N1CCOc2nc(-c3cc(N)c(F)c(C)c3C(F)(F)F)c(F)c3nc(OC[C@@]45CCCN4C[C@H](F)C5)nc1c23` (stereo partly drawn) [Compound 266] the same measures were 95 nM, more than 100 nM and more than 100 nM.
On to `CC(c1cccnc1N)N1c2nc(OC[C@@]34CCCN3C[C@H](F)C4)nc3c(F)c(-c4cc(O)cc(Cl)c4C4CC4)nc(c23)OC[C@@H]1C` (stereo partly drawn) [Compound 268], for which the IC50 in test [1] (setting [4]) turned out to be 0.2 nM; in test [2] (setting [5]) it was 0.4 nM; in test [3] (setting [6]) it was 0.5 nM.
`CC(c1cccnc1N)N1c2nc(OC[C@@H]3C[C@@H](F)CN3C)nc3c(F)c(-c4cc(O)cc5ccc(F)c(F)c45)nc(c23)OC[C@@H]1C` (stereo partly drawn) [Compound 281]: the values for the IC50 in test [1] (setting [4]), in test [2] (setting [5]) and in test [3] (setting [6]) were 0.2 nM, 1 nM and 0.5 nM, respectively.
`CC(c1cccnc1N)N1c2nc(OC[C@@H]3C[C@@H](F)CN3C)nc3c(F)c(-c4cc(N)c(F)c(Cl)c4C(F)(F)F)nc(c23)OC[C@@H]1C` (stereo partly drawn) [Compound 289]: the IC50 is 0.3 nM in test [1] (setting [4]), 4 nM in test [2] (setting [5]) and 1 nM in test [3] (setting [6]).
As to `CCc1c(F)ccc2cc(O)cc(-c3nc4c5c(nc(OC[C@@H]6C[C@@H](F)CN6C)nc5c3F)N(C(C)c3cccnc3N)[C@@H](C)CO4)c12` (stereo partly drawn) [Compound 290], the IC50 in test [1] (setting [4]) was 0.2 nM; in test [2] (setting [5]) it was 0.2 nM; in test [3] (setting [6]), 0.3 nM.
On to `CC(c1cccnc1N)N1c2nc(OC[C@@H]3C[C@@H](F)CN3C)nc3c(F)c(-c4cc(O)cc(Cl)c4C4CC4)nc(c23)OC[C@@H]1C` (stereo partly drawn) [Compound 291], for which the IC50 in test [1] (setting [4]) worked out at 0.1 nM; in test [2] (setting [5]) it was 1 nM; in test [3] (setting [6]) it was 0.3 nM.
In the case of `CCNC(=O)Oc1cc(Cl)c(C2CC2)c(-c2nc3c4c(nc(OC[C@@]56CCCN5C[C@H](F)C6)nc4c2F)N(C(C)c2cccnc2N)[C@@H](C)CO3)c1` (stereo partly drawn) [Compound 293, (*)3-((9S)-10-(1-(2-aminopyridin-3-yl)ethyl)-4-fluoro-2-(((2R,7aS)-2-fluorotetrahydro-1H-pyrrolizin-7a(5H)-yl)methoxy)-9-methyl-9,10-dihydro-8H-7-oxa-1,3,6,10-tetraazacyclohepta[de]naphthalen-5-yl)-5-chloro-4-cyclopropylphenyl ethylcarbamate acetate], the IC50 in test [1] (setting [7]) turned out to be 1 nM; in test [2] (setting [8]) it was 0.5 nM; in test [3] (setting [9]), 1 nM.
`CCNC(=O)Oc1cc(-c2nc3c4c(nc(OC[C@@]56CCCN5C[C@H](F)C6)nc4c2F)N(C(C)c2cccnc2N)[C@@H](C)CO3)c2c(CC)c(F)ccc2c1` (stereo partly drawn) [Compound 294]: the IC50 turned out to be 0.8 nM in test [1] (setting [7]), 0.5 nM in test [2] (setting [8]) and 2 nM in test [3] (setting [9]).
As to `CNC(=O)Oc1cc(Cl)c(C2CC2)c(-c2nc3c4c(nc(OC[C@@]56CCCN5C[C@H](F)C6)nc4c2F)N(C(C)c2cccnc2N)[C@@H](C)CO3)c1` (stereo partly drawn) [Compound 295], the IC50 in test [1] (setting [7]) was 0.4 nM; in test [2] (setting [8]), 0.5 nM; in test [3] (setting [9]) it was 1 nM.
Take `CCc1c(F)ccc2cc(OC(=O)NC)cc(-c3nc4c5c(nc(OC[C@@]67CCCN6C[C@H](F)C7)nc5c3F)N(C(C)c3cccnc3N)[C@@H](C)CO4)c12` (stereo partly drawn) [Compound 296]: the IC50 in test [1] (setting [7]) was 0.5 nM; in test [2] (setting [8]), 0.3 nM; in test [3] (setting [9]), 2 nM.
Regarding `CC(c1cccnc1N)N1c2nc(OC[C@@]34CCCN3C[C@H](F)C4)nc3c(F)c(-c4c(C(F)(F)F)ccc5[nH]ncc45)nc(c23)OC[C@@H]1C` (stereo partly drawn) [Compound 297], the IC50 was found to be 0.5 nM in test [1] (setting [4]), 3 nM in test [2] (setting [5]) and 1 nM in test [3] (setting [6]).
Regarding `CCc1c(F)ccc2cc(O)cc(-c3nc4c5c(nc(OC[C@@]67CCCN6C[C@H](F)C7)nc5c3F)N(C(C)c3ccccc3N)[C@@H](C)CO4)c12` (stereo partly drawn) [Compound 298], the IC50 in test [1] (setting [4]), in test [2] (setting [5]) and in test [3] (setting [6]) was more than 100 nM in each case.
Regarding `CCc1c(F)ccc2cc(O)cc(-c3nc4c5c(nc(OC[C@@]67CCCN6C[C@H](F)C7)nc5c3F)N(C(C)c3cccnc3NC(=O)[C@H](C)N)[C@@H](C)CO4)c12` (stereo partly drawn) [Compound 300], the IC50 in test [1] (setting [4]) turned out to be 0.6 nM; in test [2] (setting [5]) it was 0.5 nM; in test [3] (setting [6]), 2 nM.
With `CCc1c(F)ccc2cc(OC(=O)N(C)C)cc(-c3nc4c5c(nc(OC[C@@]67CCCN6C[C@H](F)C7)nc5c3F)N(C(C)c3cccnc3N)[C@@H](C)CO4)c12` (stereo partly drawn) [Compound 301], the IC50 in test [1] (setting [7]) was found to be 25 nM; in test [2] (setting [8]) it was 77 nM; in test [3] (setting [9]), 72 nM.
`C/C=C/c1cc(N)cc(-c2nc3c4c(nc(OC[C@@]56CCCN5C[C@H](F)C6)nc4c2F)N(C(C)c2cccnc2N)[C@@H](C)CO3)c1C(F)(F)F` (stereo partly drawn) [Compound 302]: the IC50 in test [1] (setting [4]), in test [2] (setting [5]) and in test [3] (setting [6]) was more than 100 nM each time.
As to `CCc1c(F)ccc2cc(OC(=O)N3CCC3)cc(-c3nc4c5c(nc(OC[C@@]67CCCN6C[C@H](F)C7)nc5c3F)N(C(C)c3cccnc3N)[C@@H](C)CO4)c12` (stereo partly drawn) [Compound 304], the IC50 came out at 21 nM in test [1] (setting [7]), 55 nM in test [2] (setting [8]) and 46 nM in test [3] (setting [9]).
